system: Kasumi-1 acute myeloid leukemia cells; test: Growth Inhibition Assay (Alamar blue), Kasumi-1; format: cell-based, human; details: Homo sapiens, Kasumi 1, 72 h, Kasumi-1 cells
Experimental: The IC50 values listed for some of these compounds illustrate the antiproliferative effects of the subject compounds and were obtained using the Growth Inhibition assays described herein.
Growth Inhibition Assay. Antiproliferative effects of inhibitors were evaluated using the dye Alamar blue. This reagent offers a rapid objective measure of cell viability in cell culture, and it uses the indicator dye resazurin to measure the metabolic capacity of cells, an indicator of cell viability. Briefly, cells were plated on Costar 96-well plates. For attached cells (such as SKBr3, MDA-MB-468, LNCaP, MRCS), 8,000 cells/well were used. For suspension cells (such as MOLM-13, Kasumi-1, OCI-Ly7, PBL), 20,000 cells/well were plated. Cells were allowed to incubate for 24 h at 37° C. before drug treatment. Drugs were added in triplicates at the indicated concentrations, and the plate was incubated for 72 h. Alamar Blue (440 μM) was added, and the plate read 6 h later using the Analyst GT (Fluorescence intensity mode, excitation 530 nm, emission 580 nm, with 560=dichroic mirror). Results were analyzed using the Softmax Pro software. The percentage cell growth inhibition was calculated by comparing fluorescence readings obtained from treated versus control cells, accounting for initial cell population (time zero).

IC50 [µM] | SMILES
> 100 | COc1nc(N2CCCCC2)nc(OC)c1Sc1nc(NC(C)=O)cc(NC(C)=O)n1 [YK9, N,N′-(2-(4,6-dimethoxy-2-(piperidin-1-yl)pyrimidin-5-ylthio)pyrimidine-4,6-diyl)diacetamide]
50 | CCOc1nc(N2CCCCC2)nc(OCC)c1Sc1nc(N)cc(NC(=O)CC)n1 [YK38, N-(6-amino-2-(4,6-diethoxy-2-(piperidin-1-yl)pyrimidin-5-ylthio)pyrimidin-4-yl)propionamide]
> 100 | COc1nc(N2CCOCC2)nc(OC)c1Sc1nc(NC(C)=O)cc(NC(C)=O)n1 [YK8, N,N′-(2-(4,6-dimethoxy-2-morpholinopyrimidin-5-ylthio)pyrimidine-4,6-diyl)diacetamide]
4.8 | C=CC(=O)Nc1cc(N)nc(Sc2c(OC)nc(N3CCN(CCOCCOCCOCCO)CC3)nc2OC)n1 [YK54, N-(6-amino-2-(2-(4-(2-(2-(2-(2-hydroxyethoxy)ethoxy)ethoxy)ethyl)piperazin-1-yl)-4,6-dimethoxypyrimidin-5-ylthio)pyrimidin-4-yl)acrylamide]
2 | C=CC(=O)Nc1ccnc(Sc2c(OC)nc(N3CCCCC3)nc2OC)n1 [YK72, N-(2-(4,6-dimethoxy-2-(piperidin-1-yl)pyrimidin-5-ylthio)pyrimidin-4-yl)acrylamide]
3 | C=CC(=O)Nc1cc(N)nc(Sc2c(OC)nc(N3CCOCC3)nc2OC)n1 [YK18, N-(6-amino-2-(4,6-dimethoxy-2-morpholinopyrimidin-5-ylthio)pyrimidin-4-yl)acrylamide]
1.2 | C=CC(=O)Nc1cc(N)nc(Sc2c(OCC)nc(N3CCOCC3)nc2OCC)n1 [YK44, N-(6-amino-2-(4,6-diethoxy-2-morpholinopyrimidin-5-ylthio)pyrimidin-4-yl)acrylamide]
> 100 | CCC(=O)Nc1cc(N)nc(Sc2c(OC)nc(N3CCCCC3)nc2OC)n1 [YK16, N-(6-amino-2-(4,6-dimethoxy-2-(piperidin-1-yl)pyrimidin-5-ylthio)pyrimidin-4-yl)propionamide]
11.2 | COc1nc(N2CCN(C)CC2)nc(OC)c1Sc1nccc(NC(C)=O)n1 [YK63, N-(2-(4,6-dimethoxy-2-(4-methylpiperazin-1-yl)pyrimidin-5-ylthio)pyrimidin-4-yl)acetamide]
88.7 | CCOc1nc(N2CCN(C)CC2)nc(OCC)c1Sc1nc(N)cc(NC(=O)C2CC2)n1 [YK33, N-(6-amino-2-(4,6-diethoxy-2-(4-methylpiperazin-1-yl)pyrimidin-5-ylthio)pyrimidin-4-yl)cyclopropanecarboxamide]
55 | C/C=C/C(=O)Nc1cc(N)nc(Sc2c(OCC)nc(N3CCN(C)CC3)nc2OCC)n1 [YK34, (E)-N-(6-amino-2-(4,6-diethoxy-2-(4-methylpiperazin-1-yl)pyrimidin-5-ylthio)pyrimidin-4-yl)but-2-enamide]
> 100 | CCC(=O)Nc1cc(N)nc(Sc2c(OC)nc(N3CCN(C)CC3)nc2OC)n1 [YK13, N-(6-amino-2-(4,6-dimethoxy-2-(4-methylpiperazin-1-yl)pyrimidin-5-ylthio)pyrimidin-4-yl)propionamide]
2.5 | C=CC(=O)Nc1cc(N)nc(Sc2c(OC)nc(N3CCCCC3)nc2OC)n1 [YK19, N-(6-amino-2-(4,6-dimethoxy-2-(piperidin-1-yl)pyrimidin-5-ylthio)pyrimidin-4-yl)acrylamide]
> 100 | COc1nc(N2CCOCC2)nc(OC)c1Sc1nc(N)cc(N)n1 [YK11, 2-(4,6-dimethoxy-2-morpholinopyrimidin-5-ylthio)pyrimidine-4,6-diamine]
13.2 | CCCCCCCC(=O)Nc1cc(N)nc(Sc2c(OC)nc(N3CCCCC3)nc2OC)n1 [YK23, N-(6-amino-2-(4,6-dimethoxy-2-(piperidin-1-yl)pyrimidin-5-ylthio)pyrimidin-4-yl)octanamide]
8 | COc1nc(N2CCN(C)CC2)nc(OC)c1Sc1nc(N)cc(NC(=O)CCN(C)C)n1 [YK51, N-(6-amino-2-(4,6-dimethoxy-2-(4-methylpiperazin-1-yl)pyrimidin-5-ylthio)pyrimidin-4-yl)-3-(dimethylamino)propanamide]
7.2 | CCCCCCCC(=O)Nc1cc(N)nc(Sc2c(OC)nc(N3CCN(CCO)CC3)nc2OC)n1 [YK21, N-(6-amino-2-(2-(4-(2-hydroxyethyl)piperazin-1-yl)-4,6-dimethoxypyrimidin-5-ylthio)pyrimidin-4-yl)octanamide]
57.2 | COc1nc(N2CCN(C)CC2)nc(OC)c1Sc1nc(N)cc(N)n1 [YK2, 2-(4,6-dimethoxy-2-(4-methylpiperazin-1-yl)pyrimidin-5-ylthio)pyrimidine-4,6-diamine]
93.5 | COc1nc(N2CCN(C)CC2)nc(OC)c1Sc1nccc(N)n1 [YK67, 2-(4,6-dimethoxy-2-(4-methylpiperazin-1-yl)pyrimidin-5-ylthio)pyrimidin-4-amine]

IC50 [µM] | SMILES
16.8 | CCCCN1CCN(c2nc(OC)c(Sc3nc(NC(C)=O)cc(NC(C)=O)n3)c(OC)n2)CC1 [YK24, N,N′-(2-(2-(4-butylpiperazin-1-yl)-4,6-dimethoxypyrimidin-5-ylthio)pyrimidine-4,6-diyl)diacetamide]
23 | COc1nc(N)nc(OC)c1Sc1nc(N)cc(NC(=O)CCN2CCN(C)CC2)n1 [YK6, N-(6-amino-2-(2-amino-4,6-dimethoxypyrimidin-5-ylthio)pyrimidin-4-yl)-3-(4-methylpiperazin-1-yl)propanamide]
13.1 | C=CC(=O)Nc1cc(N)nc(Sc2c(OC)nc(N3CCN(CCOCCOCCOCCOC(=O)CCCCC4SCC5NC(=O)NC54)CC3)nc2OC)n1 (stereo not shown) [YK55, 2-(2-(2-(2-(4-(5-(4-acrylamido-6-aminopyrimidin-2-ylthio)-4,6-dimethoxypyrimidin-2-yl)piperazin-1-yl)ethoxy)ethoxy)ethoxy)ethyl 5-(2-oxohexahydro-1H-thieno[3,4-d]imidazol-4-yl)pentanoate]
> 100 | CCOc1nc(N2CCCCC2)nc(OCC)c1Sc1nc(NC(=O)C2CC2)cc(NC(=O)C2CC2)n1 [YK41, N,N′-(2-(4,6-diethoxy-2-(piperidin-1-yl)pyrimidin-5-ylthio)pyrimidine-4,6-diyl)dicyclopropanecarboxamide]
> 100 | COc1nc(N2CCCCC2)nc(OC)c1Sc1nc(N)cc(N)n1 [YK12, 2-(4,6-dimethoxy-2-(piperidin-1-yl)pyrimidin-5-ylthio)pyrimidine-4,6-diamine]
2.5 | C=CC(=O)Nc1cc(N)nc(Sc2c(OCC)nc(N3CCCCC3)nc2OCC)n1 [YK37, N-(6-amino-2-(4,6-diethoxy-2-(piperidin-1-yl)pyrimidin-5-ylthio)pyrimidin-4-yl)acrylamide]
> 100 | CCC(=O)Nc1cc(N)nc(Sc2c(OC)nc(N3CCN(CCO)CC3)nc2OC)n1 [YK14, N-(6-amino-2-(2-(4-(2-hydroxyethyl)piperazin-1-yl)-4,6-dimethoxypyrimidin-5-ylthio)pyrimidin-4-yl)propionamide]
9.5 | C=C(C)C(=O)Nc1ccnc(Sc2c(OC)nc(N3CCCC3)nc2OC)n1 [YK108, N-(2-(4,6-dimethoxy-2-(pyrrolidin-1-yl)pyrimidin-5-ylthio)pyrimidin-4-yl)methacrylamide]
15 | COc1nc(N2CCN(C)CC2)nc(OC)c1Sc1nc(NC(C)=O)cc(NC(C)=O)n1 [YK1, N,N′-(2-(4,6-dimethoxy-2-(4-methylpiperazin-1-yl)pyrimidin-5-ylthio)pyrimidine-4,6-diyl)diacetamide]
0.48 | C=CC(=O)Nc1cc(N)nc(Sc2c(OCC)nc(N3CCN(C)CC3)nc2OCC)n1 [YK30, N-(6-amino-2-(4,6-diethoxy-2-(4-methylpiperazin-1-yl)pyrimidin-5-ylthio)pyrimidin-4-yl)acrylamide]
14.7 | COc1nc(N2CCCCC2)nc(OC)c1Sc1nccc(N)n1 [YK68, 2-(4,6-dimethoxy-2-(piperidin-1-yl)pyrimidin-5-ylthio)pyrimidin-4-amine]
12.3 | CCCCCCCC(=O)Nc1cc(N)nc(Sc2c(OC)nc(N3CCOCC3)nc2OC)n1 [YK22, N-(6-amino-2-(4,6-dimethoxy-2-morpholinopyrimidin-5-ylthio)pyrimidin-4-yl)octanamide]
1.5 | C=CC(=O)Nc1cc(N)nc(Sc2c(OC)nc(N)nc2OC)n1 [YK50, N-(6-amino-2-(2-amino-4,6-dimethoxypyrimidin-5-ylthio)pyrimidin-4-yl)acrylamide]
> 100 | COc1nc(F)nc(OC)c1Sc1nccc(NC(C)=O)n1 [YK62, N-(2-(2-fluoro-4,6-dimethoxypyrimidin-5-ylthio)pyrimidin-4-yl)acetamide]
38.3 | CCOc1nc(N2CCCCC2)nc(OCC)c1Sc1nc(N)cc(NC(=O)C2CC2)n1 [YK40, N-(6-amino-2-(4,6-diethoxy-2-(piperidin-1-yl)pyrimidin-5-ylthio)pyrimidin-4-yl)cyclopropanecarboxamide]
4 | COc1nc(N2CCCCC2)nc(OC)c1Sc1nccc(NC(C)=O)n1 [YK64, N-(2-(4,6-dimethoxy-2-(piperidin-1-yl)pyrimidin-5-ylthio)pyrimidin-4-yl)acetamide]
779 | COc1nc(NCCCCCCO)nc(OC)c1Sc1nc(N)cc(N)n1 [YK52, 6-(5-(4,6-diaminopyrimidin-2-ylthio)-4,6-dimethoxypyrimidin-2-ylamino)hexan-1-ol]
76.7 | CCOc1nc(N2CCN(C)CC2)nc(OCC)c1Sc1nc(NC(C)=O)cc(NC(C)=O)n1 [YK29, N,N′-(2-(4,6-diethoxy-2-(4-methylpiperazin-1-yl)pyrimidin-5-ylthio)pyrimidine-4,6-diyl)diacetamide]
